According to patent US11656182B2, “Method, composition, and chip for detecting analyte in blood sample” (TERUMO KABUSHIKI KAISHA, priority 2016, dated 2023):
In brackets after ≈: the same amount, converted by molar mass. Entries after “also recorded” stand apart in the source; their conditions may differ. Read-outs that look alike come from different tables or passages of the source.

How the values were obtained:
[1] = Degree of solubility with respect to water at 20° C.; assay type: physicochemical
[2] = Precipitates by visual inspection before drying after coating film formation; assay type: physicochemical; conditions: coating liquid
Source text: In the production step of the blood glucose value detection chip, existence of precipitates was confirmed by visual inspection before drying after coating film formation.

[3] = Solubility observed in preparation of coating liquid and chip (Comparative Embodiments)
Source text: Further, the solubility with respect to the blood sample was low, so that the spectrum analysis was not able to be performed.

[4] = Spectrum analysis of detection chip before blood sample is deposited (transmittance of refractive index adjuster at 650 nm); assay type: physicochemical; conditions: absorption peak wavelength of WST-4
Protocol: The outline of an evaluation system used in spectrum analysis will be described below. Further, the outline of the evaluation system is illustrated in FIG. 6.
Light source: Halogen light source SPL-2H (KLV Co., Ltd.)
Conforming fiber: Core diameter=200μ or more
Spectrometer: Small fiber optical spectrometer USB2000+(Ocean Optics, Inc.)
The spectrum analysis was performed using the blood glucose value detection chips obtained in each of Embodiments and Comparative Embodiments. Incidentally, since the spacer thickness of the blood glucose value detection chip is 50 μm, the optical path length becomes 50 μm. […] Incidentally, the correction of the absorbance was performed by dividing the absorbance (actual measurement value) in each measurement wavelength by the value of the clearance (CL) (μm) actually measured in each chip and further multiplying the obtained value by […].
In the conditions of respective Embodiments and Comparative Embodiments, the value of absorbance at 650 nm (the absorption peak wavelength of WST-4) measured using the chip before the blood sample is deposited is not substantially different from the absorbance value measured by dissolving the refractive index adjuster in water and setting an optical path length of 50 μm. Therefore, from the transmittance curve before the blood sample is deposited, the transmittance of the refractive index adjuster in 650 nm that is the absorption peak wavelength of WST-4 was obtained. Incidentally, in Table 1, “⊙” represents that the transmittance at 650 nm is 60% or more and 100% or less, “◯” represents that the transmittance at 650 nm is 40% or more and less than 60%, and “X” represents that the transmittance at 650 nm is less than 40%.

red blood cell = assay: Red blood cell reducing capability of refractive index adjuster (hematocrit value change); assay type: cell-based; conditions: 50 mM in blood sample, hematocrit value 40 before addition, 5 minutes after mixing
Protocol: 400 μL of blood plasma was recovered from 1.0 ml of blood sample (hematocrit value: 40). A refractive index adjuster was added to 400 μL of the recovered blood plasma to have a concentration of 125 mM. The blood plasma after addition of the refractive index adjuster combined with the original blood sample and mixed by inverting (the concentration of the refractive index adjuster in the blood sample becoming 50 mM). The sample after 5 minutes from mixing by inverting was filled in a hematocrit tube and was separated by centrifugation with a hematocrit centrifuge at 11×10^3 rpm for 5 minutes. A hematocrit value (Ht) after separation by centrifugation was read. […] Incidentally, “unmeasurable” in Table 1 means that the degree of solubility of the refractive index adjuster was low so that measurement could not be performed.

[5] = Refractive index increasing capability of refractive index adjuster (refractometer, aqueous solutions); assay type: physicochemical; conditions: increase amount of the refractive index per 1 [mg/ml]; inclination of approximate straight line, aqueous solutions 0 to 350 mg/ml
Protocol: Aqueous solutions prepared to have a plurality of concentrations within a range of 0 to 350 mg/ml were prepared for the respective refractive index adjusters. The refractive index of each aqueous solution was obtained with a refractometer PAL-RI (ATAGO CO., LTD.). A graph was created in which the concentration of each aqueous solution is plotted on the horizontal axis and the refractive index is plotted for each refractive index adjuster on the vertical axis, and the inclination of the approximate straight line was obtained (a value of “Refractive index increasing capability” in Table 1 indicates an increase amount of the refractive index per 1 [mg/ml], and a larger inclination indicates higher refractive index increasing capability of the refractive index adjuster). Incidentally, “unmeasurable” in Table 1 means that an aqueous solution could not be prepared due to generation of precipitates.

[6] = chip with coating liquid, blood sample

Compound	Degree of solubility (class) [1]	Precipitates [2]	solubility with respect to the blood sample [3]	solubility with respect to water [3]	Transmittance 650 nm (Coloring reagent absorption peak wavelength) [4]	Red blood cell reducing capability (ΔHt) (red blood cell)	Degree of solubility [1] [mM]	Refractive index increasing capability [5]	solubility [1] [mM]	solubility with respect to the blood sample [3, 6]
CCN(CC)c1ccc(C(=C2C=CC(=[N+](CC)CC)C=C2)c2ccc(S(=O)(=O)[O-])cc2S(=O)(=O)[O-])cc1.[Na+] [Acid Blue 1, reference compound]	×	precipitates were generated; also recorded: Present	low	low	×					
O=S(=O)([O-])c1ccc2c(N=Nc3ccc(S(=O)(=O)[O-])c4ccccc34)c(O)c(S(=O)(=O)[O-])cc2c1.[Na+].[Na+].[Na+] [Acid Red 27]		Absent			◯ (the transmittance at 650 nm is 40% or more and less than 60%)	6.7	83	0.000381		
O=C([O-])C1=NN(c2ccc(S(=O)(=O)[O-])cc2)C(=O)C1N=Nc1ccc(S(=O)(=O)[O-])cc1.[Na+].[Na+].[Na+] (centres unmarked) [Acid Yellow 23]		Absent			⊙ (the transmittance at 650 nm is 60% or more and 100% or less)	8.2	487	0.000277		
O=S(=O)(O)c1cccc(S(=O)(=O)O)c1 [DSB, 1,3-benzene disulfonate]		Absent			⊙ (the transmittance at 650 nm is 60% or more and 100% or less)	9.0		0.000126		
O=S(=O)(O)c1cc(S(=O)(=O)O)c2c(/N=N/c3ccccc3)c(O)ccc2c1 [Orange G]		Absent			⊙ (the transmittance at 650 nm is 60% or more and 100% or less)	1.9	220	0.000296		
OC[C@H]1O[C@H](O[C@]2(CCl)O[C@H](CCl)[C@@H](O)[C@@H]2O)[C@H](O)[C@@H](O)[C@H]1Cl [Sucralose, sucralose]		Absent			⊙ (the transmittance at 650 nm is 60% or more and 100% or less)	0.5		0.000129	820 (≈ 326 mg/mL)	
OC[C@H]1O[C@H](O[C@H]2O[C@H](CO)[C@@H](O)[C@H](O)[C@H]2O)[C@H](O)[C@@H](O)[C@@H]1O [Trehalose, trehalose]		Absent			⊙ (the transmittance at 650 nm is 60% or more and 100% or less)	3.5		0.000109	200 (≈ 68.5 mg/mL)	
O=[N+]([O-])c1ccc(-[n+]2nc(-c3ccc(S(=O)(=O)[O-])cc3S(=O)(=O)[O-])nn2-c2ccc(I)cc2)cc1.[Na+] [Wst-1, 2-(4-iodophenyl)-3-(4-nitrophenyl)-5-(2,4-disulfophenyl)-2H-tetrazolium sodium salt, reference compound]		Absent			×			0.000174		low
COc1cc([N+](=O)[O-])ccc1-n1nc(-c2ccc(S(=O)(=O)[O-])cc2S(=O)(=O)[O-])n[n+]1-c1ccc([N+](=O)[O-])cc1.[Na+] [Wst-8, 2-(2-methoxy-4-nitrophenyl)-3-(4-nitrophenyl)-5-(2,4-disulfophenyl)-2H-tetrazolium sodium salt, reference compound]		Absent			×			0.000189		low
Acid Fuchsin [reference compound]		Absent			×	14.3	340	0.000259		
